Data set [1] deals with myocardial ischemia/reperfusion injury. The conditions noted are these: anesthetized rabbits, given during ischemia and 5 minutes prior to reperfusion; cited from earlier work.
The next data set concerns rat renal tissue. The conditions noted are these: rat kidney, given during ischemia and 5 minutes before reperfusion; cited from earlier work.
For data set [2], the system named is ischemia/reperfusion injury. The conditions noted are these: pre-ischemic administration; cited from earlier work.
Data set [3] can be described thus: Decomposition kinetics (HNO release) monitored by UV-Vis spectroscopy. The data set is classed as physicochemical. The conditions noted are these: for half-life: pH 7.4, decomposition half-life, pH 7.4, 37° C., compounds 5, 7-10 not first-order, approximate half-lives; for kO2/kAr: ratio of oxygen-dependent to argon decomposition rate, 0.1 M PBS pH 7.4, 37° C. As to the method: The decomposition rates of the compounds may be determined by UV-Vis spectroscopy.
The decomposition of compounds 1-4 and 6 from Example 1 was monitored by UV-Vis spectroscopy in 0.1 M PBS buffer at pH 7.4 and 37° C. The spectral behavior was isosbestic and the time course fit well to a single exponential. […] Decomposition kinetics for compounds 5, 7-10 of Example 1 are not first-order and thus only approximate half-lives are reported. Compounds with more than one number in a single column in the table below indicates the results of two experiments for the same compound.

Setting [4] is: aerated 0.1 M PBS buffer, aerated 0.1 M PBS buffer, read-out: t1/2 (air).
The mark [5] stands for this setting: argon-saturated 0.1 M PBS buffer, argon-saturated 0.1 M PBS buffer, read-out: t1/2 (Ar).

The text below walks through data of patent US11306056B2 (Cardioxyl Pharmaceuticals, Inc., priority 2006, dated 2022).

Like-named read-outs stand apart in the source and are kept apart here.

On to `[Na+].[Na+].[O-][N+]([O-])=NO` [AS, sodium dioxotrinitrate], for which, in data set [1], the “effect on myocardial ischemia/reperfusion injury” value is reported as “increased myocardial ischemia/reperfusion injury”. Also, the “neutrophil infiltration into renal tissue” value in the data set with rat renal tissue is recorded as “contributed to neutrophil infiltration into the tissue”. Besides, the “effect on ischemia/reperfusion injury” value in data set [2] is on record as “prevent or reduce ischemia/reperfusion injury”.

`O=S(=O)(NO)c1ccccc1F` [Compound 1, 2-Fluoro-N-hydroxybenzenesulfonamide] gave a melting point of 127 to 129 °C. The half-life in data set [3] (setting [4]) is 2.67 min. In addition, the half-life in data set [3] (setting [5]) was 17.5 min. The kO2/kAr in data set [3] was determined as 5.82.

For `O=S(=O)(NO)c1ccccc1Cl` [Compound 2, 2-Chloro-N-hydroxybenzenesulfonamide], the melting point was 152 to 155 °C (dec.). The half-life in data set [3] (setting [4]) is 1.75 min. The half-life in data set [3] (setting [5]) turned out to be 3.61 min. Further, in data set [3], the kO2/kAr is reported as 1.06.

For `O=S(=O)(NO)c1ccccc1Br` [Compound 3, 2-Bromo-N-hydroxybenzenesulfonamide], the melting point was 156 to 159 °C (dec.). In data set [3] (setting [4]), the half-life was 0.68 min. The half-life in data set [3] (setting [5]) worked out at 1.05 min. In data set [3], the kO2/kAr is given as 0.55.

Take `O=S(=O)(NO)c1ccccc1C(F)(F)F` [Compound 4, 2-(Trifluoromethyl)-N-hydroxybenzenesulfonamide]: the melting point was 124 to 127 °C (dec.). For the same compound, the half-life in data set [3] (setting [4]) came out at 0.55 min. Besides, in data set [3] (setting [5]), the half-life turned out to be 0.96 min. In addition, the kO2/kAr in data set [3] stood at 0.75.

As to `O=S(=O)(NO)c1cc(Cl)sc1Cl` [Compound 6, 2,5-Dichlorothiophene-3-sulfohydroxamic acid], the kO2/kAr in data set [3] is listed as 2.52.

On to `O=S(=O)(NO)c1ccc(F)cc1` [Compound 7, 4-Fluoro-N-hydroxybenzenesulfonamide], for which the half-life in data set [3] (setting [4]) amounted to 10 min; in data set [3] (setting [5]), 72.1 min.

In the case of `O=S(=O)(NO)c1ccc(C(F)(F)F)cc1` [Compound 8, 4-(Trifluoromethyl)-N-hydroxybenzenesulfonamide], the melting point is 117 to 121 °C (dec.). For the same compound, in data set [3] (setting [4]), the half-life was 7 min. Further, in data set [3] (setting [5]), the half-life was 33 min.

Turning to `N#Cc1ccc(S(=O)(=O)NO)cc1` [Compound 9, 4-Cyano-N-hydroxybenzenesulfonamide], the melting point is 151 to 155 °C (dec.). In addition, the half-life in data set [3] (setting [4]) came out at 4 min. Besides, in data set [3] (setting [5]), the half-life is 17.8 min.

Regarding `O=[N+]([O-])c1ccc(S(=O)(=O)NO)cc1` [Compound 10, 4-Nitro-N-hydroxybenzenesulfonamide], the half-life in data set [3] (setting [4]) worked out at 3.3 min.

As for `CC(C)N[N+]([O-])=N[O-].[Na+]` [isopropylamine/NO], in data set [2], the “effect on ischemia/reperfusion injury” value is “prevent or reduce ischemia/reperfusion injury”.
